ChEMBL document CHEMBL6096697, “Structure-Guided Discovery of Novel N4-(Substituted Thiazol-2-yl)-N2-(4-Substituted phenyl)pyrimidine-2,4-Diamines as Potent CDK2 and CDK9 Dual Inhibitors with High Oral Bioavailability” (J Med Chem, 2025)
pIC50: −log10 of the molar value. Active and inactive are the calls of the source. No cut-off for these calls is given here.

Key:
[1] = target: CDK9/cyclin T1 (Homo sapiens) (UniProt O60563+P50750); test: Inhibition of CDK9/cyclin T (unknown origin) using […] at 1 uM incubated for 40 mins in presence of ATP by Kinase-Glo assay relative to control; assay type: protein-complex assay
HCT-116 [2] = test: Cytotoxicity against human HCT-116 cells assessed as cell growth inhibition incubated for 48 hrs by MTT assay; assay type: functional, cell-based; settings: HCT-116, 48 h
[3] = target: Cyclin-dependent kinase 7/ cyclin H (Homo sapiens, UniProt P50613); test: Inhibition of CDK7/cyclin H (unknown origin) using […] incubated for 40 mins in presence of ATP by Kinase-Glo assay; assay type: protein-complex assay
Chain of Cyclin-dependent kinase 7/ cyclin H (P51946 whole entry): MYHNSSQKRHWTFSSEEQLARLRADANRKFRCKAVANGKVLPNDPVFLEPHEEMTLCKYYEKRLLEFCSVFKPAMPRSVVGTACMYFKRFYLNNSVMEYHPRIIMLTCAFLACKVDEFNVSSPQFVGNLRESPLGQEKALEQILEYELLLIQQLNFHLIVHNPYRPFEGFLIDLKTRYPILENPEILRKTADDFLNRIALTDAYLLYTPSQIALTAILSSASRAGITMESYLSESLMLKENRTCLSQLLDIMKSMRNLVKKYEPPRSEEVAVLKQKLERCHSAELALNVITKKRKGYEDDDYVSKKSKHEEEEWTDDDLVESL
Chain of Cyclin-dependent kinase 7/ cyclin H (P50613 whole entry): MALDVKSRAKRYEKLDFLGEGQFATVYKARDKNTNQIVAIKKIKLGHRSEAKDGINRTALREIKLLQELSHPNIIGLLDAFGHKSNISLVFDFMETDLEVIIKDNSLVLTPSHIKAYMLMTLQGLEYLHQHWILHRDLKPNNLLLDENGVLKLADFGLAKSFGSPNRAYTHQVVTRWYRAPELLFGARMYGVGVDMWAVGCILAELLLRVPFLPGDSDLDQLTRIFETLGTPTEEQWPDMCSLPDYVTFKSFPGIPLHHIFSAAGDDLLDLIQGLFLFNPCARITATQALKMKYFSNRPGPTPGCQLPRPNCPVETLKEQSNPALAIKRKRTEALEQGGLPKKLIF

MCF7 = test: Antiproliferative activity against human MCF7 cells assessed as cell growth inhibition incubated for 48 hrs by MTT assay; assay type: functional, cell-based; settings: MCF7, 48 h
HepG2 = test: Antiproliferative activity against human HepG2 cells assessed as cell growth inhibition incubated for 48 hrs by MTT assay; assay type: functional, cell-based; settings: HepG2, 48 h
MV4-11 = test: Antiproliferative activity against human MV4-11 cells assessed as cell growth inhibition incubated for 48 hrs by MTT assay; assay type: functional, cell-based; settings: MV4-11, 48 h
HCT-116 [4] = test: Induction of cell cycle arrest in human HCT-116 cells assessed as accumulation at sub-G1 phase at 0.2 uM incubated for 24 hrs by PI staining based flow cytometry (reference value: 2.45 +/- 0.49 %); assay type: functional
HCT-116 [5] = test: Induction of cell cycle arrest in human HCT-116 cells assessed as accumulation at G1/G0 phase at 0.8 uM incubated for 24 hrs by PI staining based flow cytometry (reference value: 58.29 +/- 2.01 %); assay type: functional
HCT-116 [6] = test: Induction of cell cycle arrest in human HCT-116 cells assessed as accumulation at S phase at 0.8 uM incubated for 24 hrs by PI staining based flow cytometry (reference value: 20.82 +/- 1.24 %); assay type: functional
HeLa [7] = test: Induction of cell cycle arrest in human HeLa cells assessed as accumulation at G2/M phase at 0.9 uM incubated for 24 hrs by PI staining based flow cytometry (reference value: 24.6 +/- 1.11 %); assay type: functional
HeLa [8] = test: Induction of cell cycle arrest in human HeLa cells assessed as accumulation at sub-G1 phase at 1.8 uM incubated for 24 hrs by PI staining based flow cytometry (reference value: 1.89 +/- 0.56 %); assay type: functional
HeLa [9] = test: Induction of cell cycle arrest in human HeLa cells assessed as accumulation at S phase at 1.8 uM incubated for 24 hrs by PI staining based flow cytometry (reference value: 17.84 +/- 1.89 %); assay type: functional
HeLa [10] = test: Induction of cell cycle arrest in human HeLa cells assessed as accumulation at sub-G1 phase at 3.6 uM incubated for 24 hrs by PI staining based flow cytometry (reference value: 1.89 +/- 0.56 %); assay type: functional
HeLa [11] = test: Induction of cell cycle arrest at G2/M phase in human HeLa cells assessed as decrease in p-Cdc2 level incubated for 48 hrs by Western blot analysis; assay type: functional, cell-based; settings: dose <= 3.6 µM
HCT-116 [12] = test: Induction of cell cycle arrest at G2/M phase in human HCT-116 cells assessed as decrease in cyclin B1 level at 0.4 uM by Western blot analysis; assay type: functional, cell-based; settings: time <= 48.0 hrs
HCT-116 [13] = test: Induction of apoptosis in human HCT-116 cells assessed as early apoptotic cells at 0.4 uM incubated for 24 hrs by PI staining based flow cytometry (reference value: 0.19 %); assay type: functional
HCT-116 [14] = test: Induction of apoptosis in human HCT-116 cells assessed as late apoptotic cells at 0.4 uM incubated for 24 hrs by PI staining based flow cytometry (reference value: 1.11 %); assay type: functional
HCT-116 [15] = test: Induction of apoptosis in human HCT-116 cells assessed as late apoptotic cells at 0.8 uM incubated for 24 hrs by PI staining based flow cytometry (reference value: 1.11 %); assay type: functional
HeLa [16] = test: Induction of apoptosis in human HeLa cells assessed as early apoptotic cells at 0.9 uM incubated for 24 hrs by PI staining based flow cytometry (reference value: 0.8 %); assay type: functional
HeLa [17] = test: Induction of apoptosis in human HeLa cells assessed as late apoptotic cells at 0.9 uM incubated for 24 hrs by PI staining based flow cytometry (reference value: 3.85 %); assay type: functional
HeLa [18] = test: Induction of apoptosis in human HeLa cells assessed as late apoptotic cells at 1.8 uM incubated for 24 hrs by PI staining based flow cytometry (reference value: 3.85 %); assay type: functional
HCT-116 [19] = test: Induction of apoptosis in human HCT-116 cells assessed as increase in p53 level upto 0.8 uM incubated for 24 hrs by Western blot analysis; assay type: functional, cell-based
HeLa [20] = test: Induction of apoptosis in human HeLa cells assessed as increase in p53 level upto 3.6 uM incubated for 24 hrs by Western blot analysis; assay type: functional, cell-based
HCT-116 [21] = test: Induction of apoptosis in human HCT-116 cells assessed as decrease in Bcl-2 level upto 0.8 uM incubated for 24 hrs by Western blot analysis; assay type: functional, cell-based
HeLa [22] = test: Induction of apoptosis in human HeLa cells assessed as decrease in Bcl-2 level upto 3.6 uM incubated for 24 hrs by Western blot analysis; assay type: functional, cell-based
HCT-116 [23] = test: Effect on Bax level in human HCT-116 cells upto 0.8 uM incubated for 24 hrs by Western blot analysis; assay type: functional, cell-based
[24] = MRT (0 to infinity) in Sprague-Dawley rat at 2 mg/kg, iv measured for 36 hrs by MRM analysis; assay type: ADME, organism-based; settings: in vivo
[25] = Half life in Sprague-Dawley rat at 10 mg/kg, po measured for 36 hrs by MRM analysis; assay type: ADME, organism-based; settings: in vivo
[26] = Tmax in Sprague-Dawley rat at 10 mg/kg, po measured for 36 hrs by MRM analysis; assay type: ADME, organism-based; settings: in vivo
[27] = Clearance in Sprague-Dawley rat at 10 mg/kg, po measured for 36 hrs by MRM analysis; assay type: ADME, organism-based; settings: in vivo
HCT-116 [28] = test: Antitumor activity against human HCT-116 cells xenografted in Balb/c-nu nude mouse at 35 mg/kg/day, po treated for 7 days consecutively relative to control; assay type: functional; settings: HCT-116, 168 h, time 7 day, read-out: TGI
HCT-116 [29] = test: Antitumor activity against human HCT-116 cells xenografted in Balb/c-nu nude mouse at 70 mg/kg/day, po treated for 7 days consecutively relative to control; assay type: functional; settings: HCT-116, 168 h, time 7 day, read-out: TGI
[30] = Toxicity in Balb/c-nu nude mouse xenografted with human HCT-116 cells assessed as toxic reactions at 35 to 70 mg/kg/day, po treated for 30 days; assay type: organism-based; settings: in vivo, 720 h, dose 35-70 mg/kg/day, time 30 day
[31] = Toxicity in Balb/c-nu nude mouse xenografted with human HCT-116 cells assessed as toxicity in liver at 35 to 70 mg/kg/day, po treated for 30 days by H and E staining based analysis; assay type: organism-based; settings: in vivo, 720 h, dose 35-70 mg/kg/day, time 30 day
[32] = Toxicity in Balb/c-nu nude mouse xenografted with human HCT-116 cells assessed as toxicity in kidney at 35 to 70 mg/kg/day, po treated for 30 days by H and E staining based analysis; assay type: organism-based; settings: in vivo, 720 h, dose 35-70 mg/kg/day, time 30 day
C6 = test: Antitumor activity against rat C6 cells allografted in Sprague-Dawley rat at 70 mg/kg/day, po treated for 2 weeks relative to control; assay type: functional; settings: C6, 336 h, read-out: TGI

Compound `Cc1cnc(Nc2ccc(S(N)(=O)=O)cc2)nc1Nc1nccs1` has an inhibition [1] of 99%, a pIC50 (HCT-116 [2]) of 6.34 and a pIC50 [3] of 6.67. For the same compound, the pIC50 (MCF7) was 5.44, the pIC50 (HepG2) was 5.68 and the pIC50 (MV4-11) was 6.92. For the same compound, the Activity (HCT-116 [4]) was 0.56%, the Activity (HCT-116 [5]) was 43.88% and the Activity (HCT-116 [6]) was 20.18%. The Activity (HeLa [7]) was 26.41%, the Activity (HeLa [8]) was 1.28% and the Activity (HeLa [9]) was 16.79%. The Activity (HeLa [10]) was 19.5%, the Activity (HeLa [11]) was “Dose-dependent-effect” and the Activity (HCT-116 [12]) was “Time-dependent-effect”. For the same compound, the Activity (HCT-116 [13]) was 17.9%, the Activity (HCT-116 [14]) was 22.9% and the Activity (HCT-116 [15]) was 27.7%. It also gave an Activity (HeLa [16]) of 65.8%, an Activity (HeLa [17]) of 5% and an Activity (HeLa [18]) of 25.9%. For the same compound, the Activity (HCT-116 [19]) was “Active”, the Activity (HeLa [20]) was “Active” and the Activity (HCT-116 [21]) was “Active”. The Activity (HeLa [22]) was “Active”, the Activity (HCT-116 [23]) was “No effect” and the MRT inf [24] was 2.8 h. For the same compound, the half-life [25] was 4 h, the Tmax [26] was 0.5 h and the CL/F [27] was 1180 mL/min/kg. For the same compound, the inhibition in vivo at 35 mg/kg/day (HCT-116 [28]) was 39%, the inhibition in vivo at 70 mg/kg/day (HCT-116 [29]) was 67% and the Activity [30] was “Non-toxic”. The Activity [31] was “Non-toxic”, the Activity [32] was “Non-toxic” and the inhibition in vivo at 70 mg/kg/day (C6) was 86%.
